Where a chain is given by its changes, count along the chain named.
How the values were obtained:
[1] = molecular target: T1, Zea mays EPSPS variant Zm-H6 (868-H6) (Zea mays, UniProt O24566, A1R/A3W/A415G/A71Q/D401G/E301S/E390G/G101A/I207L/K83R/L97C/T278A/T360S/T440Q/V437R); assay: Substrate saturation analysis with glyphosate (Example 8), Zm-H6; format: biochemical
T1 sequence (O24566 with tags, fused parts or gaps A1R/A3W/A71Q/K83R/L97C/G101A/I207L/T278A/E301S/T360S/E390G/D401G/A415G/V437R/T440Q): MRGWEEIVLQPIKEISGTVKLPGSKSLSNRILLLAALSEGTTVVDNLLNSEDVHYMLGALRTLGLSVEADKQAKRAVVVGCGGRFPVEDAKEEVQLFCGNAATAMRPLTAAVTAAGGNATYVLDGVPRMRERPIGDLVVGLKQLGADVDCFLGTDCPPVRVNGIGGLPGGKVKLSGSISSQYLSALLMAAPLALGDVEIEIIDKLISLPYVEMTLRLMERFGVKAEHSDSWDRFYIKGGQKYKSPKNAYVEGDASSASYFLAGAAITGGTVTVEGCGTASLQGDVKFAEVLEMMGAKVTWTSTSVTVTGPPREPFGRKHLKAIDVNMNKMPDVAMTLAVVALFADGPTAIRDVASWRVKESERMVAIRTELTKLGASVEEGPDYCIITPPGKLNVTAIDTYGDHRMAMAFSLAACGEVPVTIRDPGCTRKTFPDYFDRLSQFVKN
Source text: Generally, (kcat/KM)*KI is obtained by performing substrate saturation analysis in the absence and presence of inhibitor. However, that analysis takes longer. […] To validate the method, (kcat/KM)*KI was quantified using both methods—traditional (saturation) and the instant method (rapid), for variants of maize 5-enolpyruvylshikimate-3-phosphate synthase (EPSPS) and its competitive inhibitor, glyphosate.
The amino acid sequence of mature Zea mays EPSPS was obtained from GenBank entry CAA44974.1 (SEQ ID NO:2). A nucleotide sequence was created to add an N-terminal methionine and to optimize codon usage for expression in E. coli. The synthesized gene was cloned into an expression vector that provides a T7 promoter driving expression of the protein and a 10× N-terminal histidine tag. Variants selected for this study include native maize EPSPS and variants generated by a gene shuffling cascade described herein. […] Protein concentration was determined by absorbance at 280 nm using an extinction coefficient of 0.676 OD/mg/m L. The proteins were normalized to 0.5 mg/mL for assay.
EPSPS activity was determined by quantifying the phosphate generated by the reaction. […] The absorbance change that occurs was monitored continuously at 360 nm, where the extinction is 11,200 M-1 cm-1, with a Spectramax plate reader (Molecular Devices). […]

[2] = molecular target: T2, Zea mays EPSPS variant Zm-H6 (868-H6) with K246G (H6-K246G) (Zea mays, UniProt O24566, A1R/A3W/A415G/A71Q/D401G/E301S/E390G/G101A/I207L/K245G/K83R/L97C/T278A/T360S/T440Q/V437R); assay: Rapid two-rate method for (kcat/KM)*KI, H6-K246G; format: biochemical; details: [E] 0.07 uM, [Gly] 1000 uM
T2 construct: 868-H6 plus K246G; E. coli BL21(DE3), Ni-NTA purified
T2 sequence (O24566 with tags, fused parts or gaps A1R/A3W/A71Q/K83R/L97C/G101A/I207L/K245G/T278A/E301S/T360S/E390G/D401G/A415G/V437R/T440Q): T1 sequence (O24566 with tags, fused parts or gaps A1R/A3W/A71Q/K83R/L97C/G101A/I207L/T278A/E301S/T360S/E390G/D401G/A415G/V437R/T440Q) with K246G
Source text: There are several practical considerations for accurately estimating (kcat/KM)*KI with the rapid method. […] 2) The inhibitor concentration must be adjusted so as to obtain a degree of inhibition that minimally amplifies the error in the term v0-vi in Equation 3. If inhibition is too little, v0-vi will be small, and the error in the multiplier vi×v0/(v0-vi) will be large. […] 3) Substrate concentration should be set at the approximate KM of the parental variant(s), subject to the sensitivity of the assay. High substrate concentration obscures sensitivity to the inhibitor and reduces stringency for capturing improvements in KM. Depending on the necessity for speed, there exists opportunity for customizing enzyme and inhibitor concentrations. […] The rapid method was repeated for those and obtained data that correlated better with data obtained by substrate saturation analysis. For screening purposes however, that correlation step is not necessary. Conditions can be set so that variants with a pre-determined minimal fitness level are accurately quantified.
In Table 15, parameters above the heavy line for the rapid method were obtained under standard conditions. For variants shown below the heavy line, the rapid analysis was repeated with enzyme or glyphosate concentrations adjusted as needed to generate sufficient signal within the limits for linear initial rates.

[3] = tested on: EPSPS with TIPS mutations (T103I and P107S, as in GA21); details: Funke et al. 2009; Yu et al. 2015; cited from earlier work

SMILES	Ki [1]	(kcat/KM)*KI ([1]; substrate saturation, Zm-H6)	(kcat/KM)*KI [2]	kcat relative to native kcat [3]
O=C(O)CNCP(=O)(O)O [glyphosate, N-phosphonomethylglycine]	381 µM	3660	3495	–
C=C(OP(=O)(O)O)C(=O)O [PEP, phosphoenolpyruvate]	–	–	–	~5%
